Measurements reported in US11773094B2, “Farnesoid X receptor agonists and uses thereof” (Metacrine, Inc., priority 2018, dated 2023).
pEC50: −log10 of the molar value.

Target: T1, hFXR (Homo sapiens, UniProt Q96RI1)
T1 construct: expressed in transfected cells; host or cells: CV-1 cells
T1 sequence (Q96RI1 1-486): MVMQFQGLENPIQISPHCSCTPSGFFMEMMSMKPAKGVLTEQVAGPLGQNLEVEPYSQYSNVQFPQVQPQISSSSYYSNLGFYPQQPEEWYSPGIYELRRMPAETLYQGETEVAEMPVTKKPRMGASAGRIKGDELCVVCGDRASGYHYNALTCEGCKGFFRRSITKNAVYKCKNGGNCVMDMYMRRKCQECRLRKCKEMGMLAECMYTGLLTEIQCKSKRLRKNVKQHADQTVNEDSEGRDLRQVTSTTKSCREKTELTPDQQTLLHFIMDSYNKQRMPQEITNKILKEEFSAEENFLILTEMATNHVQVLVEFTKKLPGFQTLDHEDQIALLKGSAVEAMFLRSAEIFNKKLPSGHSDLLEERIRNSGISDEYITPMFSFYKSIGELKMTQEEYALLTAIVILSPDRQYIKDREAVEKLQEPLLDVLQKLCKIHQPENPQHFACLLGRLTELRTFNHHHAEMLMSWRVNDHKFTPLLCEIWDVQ
T1 sequence (P19793 1-462 partner): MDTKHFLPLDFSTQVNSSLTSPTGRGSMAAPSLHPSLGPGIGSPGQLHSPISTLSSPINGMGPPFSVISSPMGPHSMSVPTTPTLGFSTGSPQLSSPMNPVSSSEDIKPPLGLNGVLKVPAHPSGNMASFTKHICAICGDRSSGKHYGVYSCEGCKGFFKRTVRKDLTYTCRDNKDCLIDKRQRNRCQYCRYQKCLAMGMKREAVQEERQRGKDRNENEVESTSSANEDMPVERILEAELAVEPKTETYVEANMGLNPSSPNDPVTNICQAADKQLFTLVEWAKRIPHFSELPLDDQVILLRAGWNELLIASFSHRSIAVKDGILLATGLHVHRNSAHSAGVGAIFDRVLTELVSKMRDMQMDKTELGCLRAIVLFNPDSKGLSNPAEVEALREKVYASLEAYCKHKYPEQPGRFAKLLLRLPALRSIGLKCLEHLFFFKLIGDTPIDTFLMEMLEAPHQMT
Experiment: In Vitro FXR Assay (TK): TK-ECRE-luc reporter in transfected CV-1 cells
Type: cell-based
Details: CV-1 cells transfected with hFXR, hRXR, pCMX-YFP, 18 hrs incubation, luminescence
Outline: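 First, CV-1 cells were grown overnight in stripped-serum DMEM, then transfected for 18 h with expression plasmids for human FXR and RXR plus a TK-ECRE luciferase reporter and YFP. Next, serially diluted compounds were applied for 18 h, and lysates were read by luminescence.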

Row | Structure (SMILES) | pEC50
1 | COc1ccc([C@H]2CC[C@H](CN(c3cc(-c4cnc(C(C)(C)C)s4)ccn3)C(=O)[C@H]3CC[C@H](OC(=O)N4CC(O)C4)CC3)CC2)cc1C [Compound 1.01, trans-4-((4-(2-(tert-Butyl)thiazol-5-yl)pyridin-2-yl)(((trans)-4-(4-methoxy-3-methylphenyl)cyclohexyl)methyl)carbamoyl) cyclohexyl 3-hydroxyazetidine-1-carboxylate] | 6.00 to 8.00
2 | CCC(C)(C)n1cc(-c2ccnc(N(CC34CCC(c5ccc(OC)c(C)c5)(CC3)CC4)C(=O)[C@H]3CC[C@H](OC(=O)NCCCO)CC3)c2)cn1 [Compound 4.03, 4-(((4-(4-Methoxy-3-methylphenyl)bicyclo[2.2.2]octan-1-yl)methyl)(4-(1-(tert-pentyl)-1H-pyrazol-4-yl)pyridin-2-yl)carbamoyl) cyclohexyl trans-(3-hydroxypropyl)carbamate] | ≥ 8.00
3 | COc1ccc(C23CCC(CN(c4cc(-c5coc(C(C)(C)C)n5)ccn4)C(=O)[C@H]4CC[C@H](OC(=O)NCCC(C)(C)O)CC4)(CC2)CC3)cc1C [Compound 2.20, 4-((4-(2-(tert-Butyl)oxazol-4-yl)pyridin-2-yl)((4-(4-methoxy-3-methylphenyl)bicyclo[2.2.2]octan-1-yl)methyl)carbamoyl) (trans-cyclohexyl) (3-hydroxy-3-methylbutyl)carbamate] | ≥ 8.00
4 | COc1ccc(C23CCC(CN(c4cc(-c5coc(C(C)(C)C)n5)ccn4)C(=O)[C@H]4CC[C@H](OC(=O)NCCO)CC4)(CC2)CC3)cc1C [Compound 2.19, 4-((4-(2-(tert-Butyl)oxazol-4-yl)pyridin-2-yl)((4-(4-methoxy-3-methylphenyl)bicyclo[2.2.2]octan-1-yl)methyl)carbamoyl)cyclohexyl (2-hydroxyethyl)trans-carbamate] | ≥ 8.00
5 | COc1ccc(C23CCC(CN(c4cc(-c5cnc(C(C)(C)C)s5)ccn4)C(=O)[C@H]4CC[C@H](OC(=O)N5CC(C)(O)C5)CC4)(CC2)CC3)cc1C [Compound 2.01, 4-((4-(2-(tert-Butyl)thiazol-5-yl)pyridin-2-yl)((4-(4-methoxy-3-methylphenyl)bicyclo[2.2.2]octan-1-yl)methyl)carbamoyl) (trans-cyclohexyl) 3-hydroxy-3-methylazetidine-1-carboxylate] | ≥ 8.00
6 | COc1ccc(C23CCC(CN(c4cc(-c5cnn(C(C)(C)C)c5)ccn4)C(=O)[C@H]4CC[C@H](OC(=O)NC5CCS(=O)(=O)CC5)CC4)(CC2)CC3)cc1C [Compound 2.39, 4-((4-(1-(tert-Butyl)-1H-pyrazol-4-yl)pyridin-2-yl)((4-(4-methoxy-3-methylphenyl)bicyclo[2.2.2]octan-1-yl)methyl)carbamoyl) cyclohexyl trans-(1,1-dioxidotetrahydro-2H-thiopyran-4-yl)carbamate] | 6.00 to 8.00
7 | COc1ccc([C@H]2CC[C@H](CN(c3cc(-c4coc(C(C)(C)C)n4)ccn3)C(=O)[C@H]3CC[C@H](OC(=O)NC4CCOCC4)CC3)CC2)cc1C [Compound 1.07, trans-4-((4-(2-(tert-Butyl)oxazol-4-yl)pyridin-2-yl)(((trans)-4-(4-methoxy-3-methylphenyl)cyclohexyl)methyl)carbamoyl) cyclohexyl (tetrahydro-2H-pyran-4-yl)carbamate] | 6.00 to 8.00
8 | COc1ccc(C23CCC(CN(c4ccnc(-c5cnn(C(C)(C)C)c5)c4)C(=O)[C@H]4CC[C@H](OC(=O)N5CC(O)C5)CC4)(CC2)CC3)cc1C [Compound 1.13, 4-((2-(1-(tert-Butyl)-1H-pyrazol-4-yl)pyridin-4-yl)((4-(4-methoxy-3-methylphenyl)bicyclo[2.2.2]octan-1-yl)methyl)carbamoyl) (trans-cyclohexyl) 3-hydroxyazetidine-1-carboxylate] | 6.00 to 8.00
9 | COc1ccc(C23CCC(CN(c4cc(-c5cnn(C(C)(C)C)c5)ccn4)C(=O)[C@H]4CC[C@H](OC(=O)N5CC[C@H]5CO)CC4)(CC2)CC3)cc1C [Compound 2.21, (S)-4-((4-(1-(tert-Butyl)-1H-pyrazol-4-yl)pyridin-2-yl)((4-(4-methoxy-3-methylphenyl)bicyclo[2.2.2]octan-1-yl)methyl)carbamoyl)cyclohexyl 2-(hydroxymethyl)azetidine- trans-1-carboxylate] | ≥ 8.00
